# Data: ChEMBL document CHEMBL3585249, “Strongylophorines, meroditerpenoids from the marine sponge Petrosia corticata, function as proteasome inhibitors” (Bioorg Med Chem Lett, 2015)
# Assay: Inhibition of human erythrocyte 20S proteasome assessed as reduction in chymotrypsin-like activity pre-incubated for 10 mins before addition of Suc-Leu-Leu-Val-Tyr-MCA fluorogenic substrate by fluorescence based assay
row,SMILES,IC50
1,C[C@@]12CC[C@@H]3[C@]4(CCC[C@]3(C)C(O)OC4)[C@H]1CC[C@](C)(O)[C@H]2Cc1cc(O)ccc1O (some centres undefined),2.1 µM
2,C[C@]12CCC[C@](C)(C(=O)O)[C@@H]1CC[C@]1(C)[C@@H]2CC[C@]2(C)Oc3ccc(O)cc3C[C@@H]12 [Strongylophorin-3],9.5 µM
3,CC1(C)CCC[C@]2(C)[C@H]3CC[C@]4(C)Oc5ccc(O)cc5C[C@H]4[C@]3(C)CC[C@@H]12 [Strongylophorin-22],> 100 µM
4,CC(=O)[C@@]1(C)CCC[C@]2(C)[C@H]3CC[C@]4(C)Oc5ccc(O)cc5C[C@H]4[C@]3(C)CC[C@H]21 [strongylophorine-4],19 µM
5,C[C@@]12CC[C@@H]3[C@]4(CCC[C@]3(C)C(=O)OC4)[C@H]1CC[C@](C)(O)[C@H]2Cc1cc(O)ccc1O [strongylophorine-8],8.4 µM

# Further lines, results first:
row,IC50,SMILES
1,6.6 µM,CO[C@H]1OC[C@]23CCC[C@@]1(C)C2CC[C@]1(C)C3CC[C@]2(C)Oc3ccc(O)cc3CC12 (some centres undefined)
2,9.3 µM,CCO[C@H]1OC[C@]23CCC[C@@]1(C)C2CC[C@]1(C)C3CC[C@]2(C)Oc3ccc(O)cc3CC12 (some centres undefined)
3,3.6 µM,C[C@@]12CC[C@@H]3[C@]4(CCC[C@]3(C)C(O)OC4)[C@H]1CC[C@]1(C)Oc3ccc(O)cc3C[C@@H]21 (some centres undefined)
4,> 100 µM,C[C@@]12CC[C@@H]3[C@]4(CCC[C@@]3(C)C(=O)OC4)[C@H]1CC[C@]1(C)Oc3ccc(O)cc3C[C@@H]21 [strongylophorine-2]
